How the values were obtained:
Homo sapiens [1] = species on record: Homo sapiens; test: Selectivity index, ratio of Ki for human M1 muscarinic receptor to Ki for human M5 muscarinic receptor
[2] = molecular target: T1, Muscarinic acetylcholine receptor M5 (Homo sapiens, UniProt P08912); test: Displacement of [3H]NMS from human M5 muscarinic receptor expressed in CHO-K1 cells; type: cell-based
T1 sequence (P08912 whole entry): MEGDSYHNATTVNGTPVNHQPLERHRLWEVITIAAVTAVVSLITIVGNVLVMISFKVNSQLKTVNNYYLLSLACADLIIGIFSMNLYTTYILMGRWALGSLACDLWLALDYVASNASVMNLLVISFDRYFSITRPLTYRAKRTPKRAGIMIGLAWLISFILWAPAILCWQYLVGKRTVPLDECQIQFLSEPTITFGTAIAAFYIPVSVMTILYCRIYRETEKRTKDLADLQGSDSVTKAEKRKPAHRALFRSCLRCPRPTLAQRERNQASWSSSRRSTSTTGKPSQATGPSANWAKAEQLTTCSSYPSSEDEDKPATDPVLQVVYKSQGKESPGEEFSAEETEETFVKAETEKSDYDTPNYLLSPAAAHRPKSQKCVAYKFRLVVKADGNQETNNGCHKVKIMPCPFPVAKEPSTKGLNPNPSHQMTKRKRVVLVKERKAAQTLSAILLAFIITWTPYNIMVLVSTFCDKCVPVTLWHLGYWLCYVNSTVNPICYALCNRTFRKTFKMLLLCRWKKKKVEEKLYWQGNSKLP

[3] = molecular target: T2, Muscarinic acetylcholine receptor M1 (Homo sapiens, UniProt P11229); test: biochemical; type: cell-based, CHO-K1
T2 sequence (P11229 whole entry): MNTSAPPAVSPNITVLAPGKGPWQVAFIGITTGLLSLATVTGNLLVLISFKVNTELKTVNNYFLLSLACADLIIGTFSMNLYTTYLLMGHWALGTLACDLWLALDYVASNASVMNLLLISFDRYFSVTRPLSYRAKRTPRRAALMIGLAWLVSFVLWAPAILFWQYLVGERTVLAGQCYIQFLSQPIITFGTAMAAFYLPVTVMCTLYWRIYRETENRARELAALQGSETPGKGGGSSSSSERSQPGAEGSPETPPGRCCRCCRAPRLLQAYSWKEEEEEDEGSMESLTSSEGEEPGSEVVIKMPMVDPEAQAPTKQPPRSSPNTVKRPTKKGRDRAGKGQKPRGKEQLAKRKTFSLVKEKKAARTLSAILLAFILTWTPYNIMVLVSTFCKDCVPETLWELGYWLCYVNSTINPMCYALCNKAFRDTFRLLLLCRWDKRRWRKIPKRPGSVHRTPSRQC

Homo sapiens [4] = species on record: Homo sapiens; test: Selectivity index, ratio of Ki for human M4 muscarinic receptor to Ki for human M5 muscarinic receptor
Homo sapiens [5] = species on record: Homo sapiens; test: Selectivity index, ratio of Ki for human M3 muscarinic receptor to Ki for human M5 muscarinic receptor
[6] = molecular target: T3, Muscarinic acetylcholine receptor M4 (Homo sapiens, UniProt P08173); test: Displacement of [3H]NMS from human M4 muscarinic receptor expressed in CHO-K1 cells; type: cell-based
T3 sequence (P08173 whole entry): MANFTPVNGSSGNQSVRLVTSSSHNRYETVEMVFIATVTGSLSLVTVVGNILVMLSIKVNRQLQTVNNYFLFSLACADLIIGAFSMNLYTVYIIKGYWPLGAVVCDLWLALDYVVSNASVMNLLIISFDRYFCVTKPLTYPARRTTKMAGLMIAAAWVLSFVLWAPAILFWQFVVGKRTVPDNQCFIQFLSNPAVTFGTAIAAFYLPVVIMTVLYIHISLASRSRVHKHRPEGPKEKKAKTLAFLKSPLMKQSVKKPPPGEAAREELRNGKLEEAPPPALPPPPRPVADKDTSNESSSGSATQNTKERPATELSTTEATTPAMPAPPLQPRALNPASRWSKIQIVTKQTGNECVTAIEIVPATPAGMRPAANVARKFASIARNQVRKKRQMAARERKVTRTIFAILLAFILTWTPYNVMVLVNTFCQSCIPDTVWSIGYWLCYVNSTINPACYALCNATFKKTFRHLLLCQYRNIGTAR

[7] = molecular target: Muscarinic acetylcholine receptor M3 (Homo sapiens, UniProt P20309); test: Displacement of [3H]NMS from human M3 muscarinic receptor expressed in CHO-K1 cells; type: cell-based
[8] = molecular target: T4, Muscarinic acetylcholine receptor M2 (Homo sapiens, UniProt P08172); test: Displacement of [3H]NMS from human M2 muscarinic receptor expressed in CHO-K1 cells; type: cell-based
T4 sequence (P08172 whole entry): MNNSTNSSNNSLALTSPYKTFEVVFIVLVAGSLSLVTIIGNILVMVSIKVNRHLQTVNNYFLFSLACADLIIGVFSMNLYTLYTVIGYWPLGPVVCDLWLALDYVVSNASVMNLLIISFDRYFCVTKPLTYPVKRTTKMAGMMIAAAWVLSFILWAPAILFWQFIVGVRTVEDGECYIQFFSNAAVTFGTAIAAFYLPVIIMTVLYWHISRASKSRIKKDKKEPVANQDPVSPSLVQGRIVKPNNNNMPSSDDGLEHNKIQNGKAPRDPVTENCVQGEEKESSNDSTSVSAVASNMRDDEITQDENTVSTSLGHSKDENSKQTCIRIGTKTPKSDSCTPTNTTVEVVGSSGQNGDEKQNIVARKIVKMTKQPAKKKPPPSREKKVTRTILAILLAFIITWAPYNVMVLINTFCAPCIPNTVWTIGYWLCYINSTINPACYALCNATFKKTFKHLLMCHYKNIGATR

Chain of Muscarinic acetylcholine receptor M3 (P20309 whole entry): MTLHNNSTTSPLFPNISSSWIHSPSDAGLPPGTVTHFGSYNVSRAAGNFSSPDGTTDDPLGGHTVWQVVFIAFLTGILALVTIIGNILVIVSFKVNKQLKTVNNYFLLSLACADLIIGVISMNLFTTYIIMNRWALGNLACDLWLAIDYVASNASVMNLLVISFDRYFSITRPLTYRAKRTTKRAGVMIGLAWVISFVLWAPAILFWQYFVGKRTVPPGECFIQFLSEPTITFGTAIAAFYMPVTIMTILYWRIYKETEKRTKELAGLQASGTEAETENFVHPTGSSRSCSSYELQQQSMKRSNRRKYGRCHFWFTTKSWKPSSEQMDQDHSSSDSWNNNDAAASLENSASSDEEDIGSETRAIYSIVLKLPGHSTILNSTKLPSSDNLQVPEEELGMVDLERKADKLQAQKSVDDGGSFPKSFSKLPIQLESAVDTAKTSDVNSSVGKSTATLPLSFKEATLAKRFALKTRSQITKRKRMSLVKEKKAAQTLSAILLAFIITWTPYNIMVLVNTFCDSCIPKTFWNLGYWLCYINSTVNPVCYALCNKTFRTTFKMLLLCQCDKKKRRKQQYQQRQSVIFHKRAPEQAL

SMILES	Ratio Ki (Homo sapiens [1])	Ki [2]	Ki [3]	Ratio Ki (Homo sapiens [4])	Ratio Ki (Homo sapiens [5])	Ki [6]	Ki [7]	Ki [8]
CN1CCC(c2ccccc2F)=C(C(=O)OCCc2ccc3c(c2)CCO3)C1	7	0.74 µM	5.27 µM	7.8	6.6	5.74 µM	4.89 µM	0.54 µM
CSc1ccc(CCOC(=O)C2=C(c3ccccc3)CCN(C)C2)cc1	1.8	0.19 µM	0.34 µM	–	–	–	–	–
CCOC(=O)C1=C(c2ccccc2)CCN(CCc2ccc3c(c2)CCO3)C1	–	> 100 µM	> 100 µM	–	–	–	–	–
CN1CCC(c2ccccc2)=C(C(=O)OCCCc2ccc3c(c2)CCO3)C1	1.5	0.63 µM	0.92 µM	–	–	–	–	–
CCN1CCC(c2ccccc2)=C(C(=O)OCCc2ccc(OC)c(F)c2)C1	4.8	2.46 µM	11.7 µM	–	–	–	–	–
COc1ccccc1C1=C(C(=O)OCCc2ccc3c(c2)CCO3)CN(C)CC1	3.5	2.41 µM	8.35 µM	–	–	–	–	–
CN1CCC(c2ccccc2)=C(C(=O)OCCc2cccc3ccccc23)C1	4.8	5.04 µM	24.4 µM	> 20	> 20	> 100 µM	> 100 µM	> 100 µM
COc1ccc(CCOC(=O)C2=C(c3ccccc3F)CCN(C)C2)cc1OC	–	> 100 µM	> 100 µM	–	–	–	–	–
CCN1CCC(c2ccccc2)=C(C(=O)OCCc2ccc([N+](=O)[O-])cc2)C1	1.8	0.44 µM	0.81 µM	–	–	–	–	–
CCN1CCC(c2ccccc2)=C(C(=O)OCCc2ccsc2)C1	0.7	0.19 µM	0.14 µM	–	–	–	–	–
CCCCN1CCC(c2ccccc2)=C(C(=O)OCCc2ccc(OC)cc2)C1	–	> 100 µM	> 100 µM	–	–	–	–	–
COc1ccc(CCOC(=O)C2=C(c3ccccc3OC)CCN(C)C2)cc1OC	–	> 100 µM	> 100 µM	–	–	–	–	–
CCN1CCC(c2ccccc2)=C(C(=O)OCCCc2ccc(OC)cc2)C1	–	–	–	–	–	11.5 µM	4.07 µM	2.03 µM
COc1ccc(CCOC(=O)C2=C(c3ccccc3)CN(C)CC2)cc1OC	–	2.62 µM	6.16 µM	–	–	–	–	–
CCN1CCC(c2ccccc2)=C(C(=O)OCCc2cc(OC)c(OC)c(OC)c2)C1	–	> 100 µM	> 100 µM	–	–	–	–	–
CCOC(=O)C1=C(c2ccccc2)CCN(C2CCN(C(=O)c3c(Cl)cccc3Cl)CC2)C1	–	> 100 µM	> 100 µM	–	–	–	–	–
CCN1CCC(c2ccccc2)=C(C(=O)OCCc2ccc3c(c2)CCO3)C1	6	0.23 µM	1.39 µM	46	135	10.5 µM	31.1 µM	> 100 µM
CCOC(=O)C1=C(c2ccccc2)CCN(C2CCN(S(=O)(=O)c3ccc(C)cc3)CC2)C1	–	> 100 µM	> 100 µM	–	–	–	–	–
CN1CCC(c2ccccc2)=C(C(=O)OCCc2ccc(S(C)(=O)=O)cc2)C1	4.6	0.11 µM	0.51 µM	–	–	–	–	–
COc1ccc(CCOC(=O)C2=C(c3ccccc3)CCN(C)C2)cc1	0.7	0.03 µM	0.02 µM	–	–	–	–	–
CN1CCC(C(=O)OCCc2ccc3c(c2)CCO3)=C(c2ccccc2)C1	–	1.14 µM	0.21 µM	–	–	–	–	–
CCOC(=O)C1=C(c2ccccc2)CCN(CCc2ccc(OC)cc2)C1	–	> 100 µM	> 100 µM	–	–	–	–	–
CN1CCC(c2ccccc2)=C(C(=O)OCCc2ccc3c(c2)CCO3)C1	4.8	0.06 µM	0.29 µM	32	47	1.89 µM	2.84 µM	1.17 µM
COc1ccc(OCCOC(=O)C2=C(c3ccccc3)CCN(C)C2)cc1	2	3.07 µM	6.19 µM	–	–	–	–	–

SMILES	Ratio Ki (Homo sapiens [1])	Ki [2]	Ki [3]	Ratio Ki (Homo sapiens [4])	Ratio Ki (Homo sapiens [5])	Ki [6]	Ki [7]	Ki [8]
CCN1CCC(c2ccccc2)=C(C(=O)OCc2ccc(OC)cc2)C1	0.8	3.61 µM	3.06 µM	–	–	–	–	–
COc1ccc(CCCCOC(=O)C2=C(c3ccccc3)CCN(C)C2)cc1	4.7	1.16 µM	5.4 µM	–	–	–	–	–
CCOC(=O)C1=C(c2ccccc2)CCN(CCc2ccc3c(c2)OCO3)C1	–	> 100 µM	> 100 µM	–	–	–	–	–
CCN1CCC(c2ccccc2)=C(C(=O)OCCc2ccc(S(C)(=O)=O)cc2)C1	–	> 100 µM	> 100 µM	–	–	–	–	–
CCCCN1CCC(c2ccccc2)=C(C(=O)OCCc2ccc3c(c2)CCO3)C1	–	> 100 µM	> 100 µM	–	–	–	–	–
CN1CCC(c2ccccc2)=C(C(=O)OCCc2cccc(F)c2)C1	4.1	0.08 µM	0.33 µM	–	–	–	–	–
CN1CCC(c2ccccc2)=C(C(=O)OCc2ccc3c(c2)CCO3)C1	–	> 100 µM	> 100 µM	–	–	–	–	–
COc1ccc(CCOC(=O)C2=C(c3ccccc3)CCN(C)C2)cc1C	3.6	0.74 µM	2.7 µM	–	–	–	–	–
COc1ccc(CCOC(=O)C2=C(c3ccccc3)CCN(Cc3ccc(OC)cc3)C2)cc1	–	> 100 µM	> 100 µM	–	–	–	–	–
COC(COC(=O)C1=C(c2ccccc2)CCN(C)C1)c1ccccc1 (stereo not given)	–	> 100 µM	> 100 µM	–	–	–	–	–
CN1CCC(c2cccc(F)c2)=C(C(=O)OCCc2ccc3c(c2)CCO3)C1	–	> 100 µM	> 100 µM	–	–	–	–	–
COc1cccc(C2=C(C(=O)OCCc3ccc(OC)c(OC)c3)CN(C)CC2)c1	–	> 100 µM	> 100 µM	–	–	–	–	–
CCOC(=O)C1=C(c2ccccc2)CCN(CCc2ccccc2)C1	–	> 100 µM	> 100 µM	–	–	–	–	–
CCN1CCC(c2ccccc2)=C(C(=O)OCCc2ccc3c(c2)OCO3)C1	0.7	0.28 µM	0.2 µM	–	–	–	–	–
CN1CC=C(c2ccccc2C(=O)OCCc2ccc3c(c2)CCO3)CC1	–	> 100 µM	> 100 µM	–	–	–	–	–
COc1cccc(C2=C(C(=O)OCCc3ccc4c(c3)CCO4)CN(C)CC2)c1	0.9	2.68 µM	2.43 µM	–	–	–	–	–
CCOC(=O)C1=C(c2ccccc2)CCN(C2CCN(C(=O)c3c(C)cccc3C)CC2)C1	–	> 100 µM	> 100 µM	–	–	–	–	–
CCCN1CCC(c2ccccc2)=C(C(=O)OCCc2ccc3c(c2)CCO3)C1	–	> 100 µM	> 100 µM	–	–	–	–	–
CCN1CCC(c2ccccc2)=C(C(=O)OCc2ccc3c(c2)OCO3)C1	0.5	0.12 µM	0.06 µM	–	–	–	–	–
CCN1CCC(c2ccccc2)=C(C(=O)OCCc2cccc(OC)c2)C1	3.1	0.15 µM	0.47 µM	–	–	–	–	–
CCCN1CCC(c2ccccc2)=C(C(=O)OCCc2ccc(OC)cc2)C1	–	> 100 µM	> 100 µM	–	–	–	–	–
CCN1CCC(c2ccc(F)cc2)=C(C(=O)OCCc2ccc3c(c2)CCO3)C1	3.4	2.35 µM	7.9 µM	–	–	–	–	–
CCN1CCC(c2ccccc2)=C(C(=O)O[C@@H](C)Cc2ccc(OC)cc2)C1	–	> 100 µM	> 100 µM	–	–	–	–	–
Cc1cccc(CCOC(=O)C2=C(c3ccccc3)CCN(C)C2)c1	3.1	0.28 µM	0.88 µM	–	–	–	–	–

Reference: ChEMBL document CHEMBL2311283, “Structural modifications to tetrahydropyridine-3-carboxylate esters en route to the discovery of M5-preferring muscarinic receptor orthosteric antagonists” (J Med Chem, 2013)
